Reference: paper PMC8596838, “Xylose‐Configured Cyclophellitols as Selective Inhibitors for Glucocerebrosidase” (Chembiochem, 2021)

How the values were obtained:
Format in all cases: biochemical
Conditions in all cases: 30 min, pH 6.0
GBA2 = biological target: T1, GBA2 (Homo sapiens, UniProt Q9HCG7); test: ABP labeling of β-D-glucosidases in HEK293T cell lysate, GBA2
T1 construct: expressed in transfected cells; host or cells: HEK293T (GBA/GBA2 KO background for the fluorogenic assay; endogenous-GBA background with GBA2 and GBA3 overexpressed for ABPP and intact-cell assays)
T1 sequence (Q9HCG7 1-927): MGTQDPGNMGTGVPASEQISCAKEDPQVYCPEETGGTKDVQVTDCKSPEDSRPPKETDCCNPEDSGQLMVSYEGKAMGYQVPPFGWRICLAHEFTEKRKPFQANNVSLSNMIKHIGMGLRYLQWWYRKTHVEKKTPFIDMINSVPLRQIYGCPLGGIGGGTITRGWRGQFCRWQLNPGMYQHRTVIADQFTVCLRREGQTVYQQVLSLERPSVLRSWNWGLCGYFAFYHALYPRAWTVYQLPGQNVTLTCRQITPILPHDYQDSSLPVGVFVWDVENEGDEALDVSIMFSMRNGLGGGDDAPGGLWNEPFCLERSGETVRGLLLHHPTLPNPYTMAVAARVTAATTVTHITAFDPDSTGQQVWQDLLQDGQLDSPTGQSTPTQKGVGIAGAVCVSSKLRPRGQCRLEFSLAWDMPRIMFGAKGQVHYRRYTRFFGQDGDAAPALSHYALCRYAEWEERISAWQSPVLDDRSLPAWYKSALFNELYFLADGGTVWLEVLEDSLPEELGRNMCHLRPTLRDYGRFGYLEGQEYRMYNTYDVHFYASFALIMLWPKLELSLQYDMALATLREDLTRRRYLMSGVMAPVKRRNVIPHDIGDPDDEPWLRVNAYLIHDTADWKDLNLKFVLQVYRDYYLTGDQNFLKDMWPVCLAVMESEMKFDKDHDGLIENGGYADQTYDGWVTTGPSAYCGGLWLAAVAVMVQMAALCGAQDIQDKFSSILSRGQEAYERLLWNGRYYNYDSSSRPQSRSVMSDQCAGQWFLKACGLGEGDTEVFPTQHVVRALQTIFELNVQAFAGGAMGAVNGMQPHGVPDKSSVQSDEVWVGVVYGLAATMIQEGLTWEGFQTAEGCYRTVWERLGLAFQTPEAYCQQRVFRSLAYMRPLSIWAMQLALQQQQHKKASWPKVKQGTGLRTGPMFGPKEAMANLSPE
Experimental: (§1) We next investigated, by ABPP, the GBA/GBA2/GBA3 activity and selectivity of β‐D‐xylo‐cyclophellitol aziridine ABPs 6 and 8 in comparison to those of GBA‐specific ABP 9 [31] or ABP 10.
(§2) Figure 4 (A) ABP labeling of β‐D‐glucosidases. A lysate of HEK293T cells expressing human GBA, GBA2 and GBA3 was incubated with indicated ABPs (6, 9 or 10) for 30 min at pH 6.0. Fluorescently labeled proteins were visualized after SDS‐PAGE. (B) Labeling with ABP 6 of wild type or mutant GBA2 (E527G nucleophile mutation and D667G acid/base mutation) expressed in HEK293T cells.
(§3) ABP labeling procedure: Glycosidases were labeled with excess fluorescent ABPs at optimum conditions. […] After ABP incubation, proteins were denatured by boiling the samples with 5× Laemmli buffer (50 % (v/v) 1 M Tris‐HCl, pH 6.8, 50 % (v/v) 100 % glycerol, 10 % (w/v) DTT, 10 % (w/v) SDS, 0.01 % (w/v) bromophenol blue) for 5 min at 98 °C, and separated by electrophoresis on 10 % (w/v) SDS‐PAGE gels running continuously at 90 V. Wet slab‐gels were scanned on fluorescence using the Typhoon FLA 9500 (GE Healthcare) at λEX 473 nm and λEM≥510 nm for green fluorescent ABP 8; and at λEX 635 nm and λEM≥665 nm for ABP 6, 9 and 10. ABP‐emitted fluorescence was quantified using ImageQuant software (GE Healthcare, Chicago, IL, USA) and curve‐fitted using Prism 8.0 (GraphPad Software). […]

GBA3 = biological target: T2, GBA3 (Homo sapiens, UniProt Q9H227); test: ABP labeling of β-D-glucosidases in HEK293T cell lysate, GBA3
T2 construct: expressed in transfected cells; host or cells: HEK293T (GBA/GBA2 KO background for the fluorogenic assay; endogenous-GBA background with GBA2 and GBA3 overexpressed for ABPP and intact-cell assays)
T2 sequence (Q9H227 1-469): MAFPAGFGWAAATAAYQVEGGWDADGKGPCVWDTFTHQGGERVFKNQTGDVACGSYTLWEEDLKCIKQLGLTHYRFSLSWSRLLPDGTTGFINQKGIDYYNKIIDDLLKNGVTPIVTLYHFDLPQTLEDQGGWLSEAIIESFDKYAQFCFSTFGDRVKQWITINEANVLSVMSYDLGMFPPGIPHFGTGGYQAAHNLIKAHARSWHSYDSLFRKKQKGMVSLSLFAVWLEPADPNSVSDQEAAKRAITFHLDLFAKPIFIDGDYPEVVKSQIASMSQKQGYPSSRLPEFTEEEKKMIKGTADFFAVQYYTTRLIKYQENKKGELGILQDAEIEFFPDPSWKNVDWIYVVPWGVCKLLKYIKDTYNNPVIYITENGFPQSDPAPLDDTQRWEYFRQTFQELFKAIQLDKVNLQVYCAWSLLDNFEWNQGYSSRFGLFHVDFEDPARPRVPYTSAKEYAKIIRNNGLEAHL
Experimental: as §1, §2, §3

GBA = biological target: T3, GBA (Homo sapiens, UniProt P04062); test: ABP labeling of β-D-glucosidases in HEK293T cell lysate, GBA
T3 construct: HEK293T cells that contain endogenous GBA; endogenous in cells; host or cells: HEK293T (ATCC CRL-3216) overexpressing GBA2 and GBA3
T3 sequence (P04062 40-536): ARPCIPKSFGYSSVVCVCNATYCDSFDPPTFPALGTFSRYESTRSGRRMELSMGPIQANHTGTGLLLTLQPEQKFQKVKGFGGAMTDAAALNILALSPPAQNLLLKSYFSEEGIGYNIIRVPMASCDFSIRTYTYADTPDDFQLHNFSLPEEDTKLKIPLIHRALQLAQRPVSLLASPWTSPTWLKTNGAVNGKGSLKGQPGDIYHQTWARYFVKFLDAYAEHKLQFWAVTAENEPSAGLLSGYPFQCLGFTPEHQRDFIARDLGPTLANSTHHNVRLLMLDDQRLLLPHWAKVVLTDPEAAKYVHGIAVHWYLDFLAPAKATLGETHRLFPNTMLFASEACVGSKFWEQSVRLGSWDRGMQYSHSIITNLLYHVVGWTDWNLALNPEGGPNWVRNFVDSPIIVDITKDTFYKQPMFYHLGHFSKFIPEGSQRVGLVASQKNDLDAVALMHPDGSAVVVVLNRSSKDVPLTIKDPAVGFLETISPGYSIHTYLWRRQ
Experimental: as §1, §2, §3

CN1/C(=C/C=C/C=C/C2=[N+](CCCCCC(=O)NCc3cn(CCCCCCCCN4[C@H]5[C@H](O)[C@@H](O)[C@H](O)C[C@H]54)nn3)c3ccccc3C2(C)C)C(C)(C)c2ccccc21 (stereo partly drawn) [ABP 6]
labeling pattern of GBA and GBA2 (GBA2): very similar to that of the broad‐specific β‐D‐glucosidase ABP 10 | labeling of GBA3 compared with ABP 10 (GBA3): tenfold less efficiently

CN1/C(=C/C=C/C=C/C2=[N+](CCCCCC(=O)NCc3cn(C[C@@H]4[C@@H](O)[C@H](O)[C@@H](O)[C@@H]5O[C@H]45)nn3)c3ccccc3C2(C)C)C(C)(C)c2ccccc21 [ABP 9, reference compound]
selectivity of ABP labeling towards GBA over GBA2 and GBA3 (GBA): most selective ABP towards GBA over GBA2 and GBA3
